These results are taken from patent US11732029B2, “Methods and compositions for the treatment of wounds” (The University of Chicago, priority 2017, dated 2023).

For test [1] the following is noted: Ishihara et al. 2018; Martino et al. 2013; cited from earlier work.
The nature of test [2]: Heparin binding to synthesized laminin peptides (ELISA). Set-up: key to Interaction with Heparin: ++ indicates high affinities; + indicates medium/low affinities. As for the experimental part: (§1) ELISA tests were performed as described above. In brief, ELISA plates were coated with 1 μg/mL of laminin alpha 3 LG domain recombinant protein, laminin alpha 4 LG domain recombinant protein (R&D systems), laminin alpha 5 LG domain recombinant protein (LD BioPharma), or laminin peptide (sequences are described in Table 1, chemically synthesized by Genscript) in PBS for 2 hrs at 37° C. 1 μg/mL of BSA served as non-binding protein control. After blocking with 2% BSA PBS-0.05% Tween 20 (PBS-T) solution, 1 μg/mL of the recombinant human proteins (VEGF-A121, VEGF-A165, PlGF-1, PlGF-2, PDGF-BB or FGF-2) or 10 μg/mL of biotinylated heparin (Sigma-Aldrich) were added. Bound GF was detected with biotinylated antibodies for human VEGF, PlGF, PDGF-BB, or FGF-2 (R&D Systems). The antibodies were detected by streptavidin-HRP (R&D Systems).
On the technique in general: ELISA stands for enzyme-linked immunosorbent assay.

The target of test [3] is T1, PDGF-BB (Homo sapiens, UniProt P01127).
T1 construct: All growth factors (GFs) and chemokines were purchased in their mature forms; purchased PeproTech; host or cells: Escherichia coli
Nature of the test: GF binding to recombinant laminin LG domain protein and synthesized laminin HBD peptides (ELISA). The settings on record: plate coated with LG domain protein or peptide, 1 μg/mL GF, vs BSA-coated wells. As for the experimental part: as §1

For test [4], the target named is T2, VEGF-A165 (Homo sapiens, UniProt P15692).
T2 construct: All growth factors (GFs) and chemokines were purchased in their mature forms; purchased PeproTech; host or cells: Escherichia coli
T2 sequence (P15692 27-191 isoform P15692-4 limits assumed): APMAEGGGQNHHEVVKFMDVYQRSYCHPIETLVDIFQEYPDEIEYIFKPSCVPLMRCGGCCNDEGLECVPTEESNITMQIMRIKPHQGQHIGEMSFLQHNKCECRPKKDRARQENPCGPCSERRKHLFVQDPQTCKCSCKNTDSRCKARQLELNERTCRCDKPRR
The test is described as above. Conditions: plate coated with LG domain protein or peptide, 1 μg/mL GF, vs BSA-coated wells. As for the experimental part:
as §1

The test system of test [5] is GFs. Put plainly: GF binding to synthesized laminin peptides (ELISA), all tested GFs together. Conditions: summary Table 2. Set-up: species or system human; key to Interaction with GFs: ++ indicates high affinities; + indicates medium/low affinities. As for the experimental part:
as §1

In test [6] the test system is syndecan-1, syndecan-2, syndecan-3, syndecan-4. Put plainly: Recombinant syndecan binding to synthesized laminin HBD peptides (ELISA). Set-up: species or system human; key to Interaction with Syndecans: ++ indicates high affinities; + indicates medium/low affinities. As for the experimental part: ELISA tests were performed as described above. In brief, ELISA plates were coated with 1 μg/mL laminin peptide (sequences are described in Table 1, chemically synthesized by Genscript) in PBS for 2 hrs at 37° C. 1 μg/mL of BSA served as non-binding protein control. After blocking with 2% BSA PBS-T solution, 1 μg/mL of the recombinant human syndecan-1, syndecan-2, syndecan-3, syndecan-4 (all syndecan proteins are histidine-tagged; SinoBiological) were added. Bound GF was detected with anti-histidine tag antibody (1:1000 dilution, BioLegend).

Test [7] has as its system human lung fibroblasts. Put plainly: Cell adhesion assay, fibroblasts on laminin peptide coated plates. In kind it is cell-based. Set-up: key to Cell adhesion Fibroblasts: ++ indicates high affinities; + indicates medium/low affinities. As for the experimental part:
(§2) 96-well plates (non-tissue culture treated, Greiner Bio-one) were pre-coated with 1 μg/mL with laminin HBD peptides in PBS for 2 hrs at 37° C., followed by blocking with 2% BSA PBS for 1 h at RT. Cell adhesion assays were performed using human lung fibroblasts (Lonza) in FGM-2 medium (Lonza) or human umbilical vein endothelial cells (HUVEC; Lonza) in EGM-2 medium (Lonza) supplemented with 1% fetal bovine serum (FBS) and […] VEGF-A165, with or without 5 mM EDTA (Sigma-Aldrich). Cells were plated at 3000 cells/well on laminin peptide pre-coated plates and incubated for 30 min at 37° C., 5% CO2. Then, the medium was removed, and wells were quickly washed three times with PBS. Cell numbers were quantified using a CyQUANT assay, according to the manufacturer's instructions (Invitrogen). All cell lines were checked for mycoplasma contamination and used in passages from 5 to 8.

The test system of test [8] is HUVEC. Nature of the test: Cell adhesion assay, HUVEC on laminin peptide coated plates. Also on record: key to Cell adhesion HUVECs: ++ indicates high affinities; + indicates medium/low affinities. Type of test: cell-based, human. As for the experimental part:
as §2

The subject of test [9] is HUVEC cells. Nature of the test: Migration assay (transwell). In kind it is cell-based, human. The settings on record: 6 hr, 30 ng/mL VEGF-A165 with or without 0.1 μM peptide. As for the experimental part:
A migration assay was performed as described previously^3. A QCM 24-Well Colorimetric Cell Migration Assay kit was used to perform migration assay. Both sides of inserts were coated with 0.1 μM of bovine collagen I (C4243, Sigma-Aldrich) for 1 hr at 37° C. Then, the inserts were washed with water, dried in a laminar flow cabinet and disposed on 24-well cell culture plate covers. Solutions containing 30 ng/mL of VEGF-A165 preincubated with or without 0.1 μM of α33043-3067 peptide in medium (MCDB-131, 0.05% BSA) were added to the bottom side of the transwell (500 μL/well). Directly thereafter, HUVEC cells in medium containing 0.05% BSA (300 μL/transwell, 4×10^4 cells/transwell) were added to the transwell upper parts. After 6 hr, migrated cells were stained and absorbance at 560 nm was measured according to the manufacturer's instructions.

For test [10], the target named is FGF-2 (Homo sapiens, UniProt P09038). Put plainly: GF binding to recombinant laminin LG domain protein and synthesized laminin HBD peptides (ELISA). Also on record: All growth factors (GFs) and chemokines were purchased in their mature forms; purchased PeproTech; host or cells: Escherichia coli. Conditions: plate coated with LG domain protein or peptide, 1 μg/mL GF, vs BSA-coated wells. As for the experimental part: as §1
Sequence of FGF-2 (P09038 143-288): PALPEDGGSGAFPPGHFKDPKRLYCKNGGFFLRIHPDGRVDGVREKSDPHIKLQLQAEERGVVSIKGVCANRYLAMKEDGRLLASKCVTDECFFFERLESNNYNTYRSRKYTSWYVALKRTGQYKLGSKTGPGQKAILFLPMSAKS

For test [11], the target named is T3, PlGF-2 (Homo sapiens, UniProt P49763).
T3 sequence (P49763 19-170 isoform P49763-3 limits assumed): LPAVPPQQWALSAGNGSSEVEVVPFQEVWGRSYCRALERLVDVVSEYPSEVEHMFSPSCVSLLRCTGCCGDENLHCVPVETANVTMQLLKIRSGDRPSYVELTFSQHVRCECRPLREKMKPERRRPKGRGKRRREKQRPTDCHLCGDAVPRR
The test is described as above. Also on record: All growth factors (GFs) and chemokines were purchased in their mature forms; purchased PeproTech; host or cells: Escherichia coli. Conditions: plate coated with LG domain protein or peptide, 1 μg/mL GF, vs BSA-coated wells. As for the experimental part:
as §1

Test [12] relates to wound healing in the db/db mouse. The settings on record: cited from earlier work.
[13] abbreviates: peptide-coated plates, 30 min at 37° C., without EDTA.

Where two headings read alike, the source gives them in different places.

With “GCGGSLRPAPPPISGGGYRARPAKAAATQKKVERKAPDA [FgHBD]”, the binding to heparin result in [1] is “bind to heparin”.

Turning to “RLVFALGTDGKKLRIKSKEKCNDGK [α33043-3067, laminin α3 chain LG4-derived peptide, 25 aa]”, the binding to heparin result in [2] (ELISA, peptide-coated plate, 10 μg/mL biotinylated heparin) is listed as “bound to heparin”. Also, the “Interaction with Heparin” value in test [2] (summary Table 2) is given as “++”. The “binding to PDGF-BB” value in [3] is recorded as “bound”. The “binding to VEGF-A165” value in test [4] is reported as “bound”. For the same molecule, the “Interaction with GFs” value in test [5] is reported as “++”. Moreover, the “binding to recombinant syndecans (syndecan 1-4)” value in [6] (ELISA, peptide-coated plate, 1 μg/mL syndecan) is listed as “significant binding”. Also, in test [6] (summary Table 2), the “Interaction with Syndecans” value is “++”. Besides, the fibroblast attachment entry in test [7] (setting [13]) is “enhancement of fibroblast attachment”. For the same molecule, the “Cell adhesion Fibroblasts” value in [7] (summary Table 2) is recorded as “++”. Moreover, the “HUVEC attachment in the presence of EDTA” value in [8] (peptide-coated plates, 30 min, 5 mM EDTA) is recorded as “even in the presence of EDTA”. In addition, the HUVEC attachment result in test [8] (setting [13]) is listed as “promoted HUVEC attachment”. Also, the “Cell adhesion HUVECs” value in test [8] (summary Table 2) was “++”. The “degree of migration of HUVEC cells” value in test [9] is “did not increase the degree of cell migration”. In test [10], the “binding to FGF-2” value is “bound”. Besides, the “binding to PlGF-2” value in [11] was “bound”.

B1: LamLG4: laminin α-chain LG4 domain used as growth factor-binding domain (protein)
chain: SLNKPPFLMLLKGSTRFNKTKTFRINQLLQDTPVASPRSVKVWQDACSPLPKTQANHGALQFGDIPTSHLLFKLPQELLKPRSQFAVDMQTTSSRGLVFHTGTKNSFMALYLSKGRLVFALGTDGKKLRIKSKEKCNDGKWHTVVFGHDGEKGRLVVDGLRAREGSLPGNSTISIRAPVYLGSPPSGKPKSLPTNSFVGCLKNFQLDSKPLYTPSSSFGVSSCTG
B1: in test [1], the binding to heparin result is on record as “bind to heparin”.

B2: PDGF-BB: platelet-derived growth factor-BB; Regranex in the clinic (protein)
chain: SLGSLTIAEPAMIAECKTRTEVFEISRRLIDRTNANFLVWPPCVEVQRCSGCCNNRNVQCRPTQVQLRPVQVRKIEIVRKKPIFKKATVTLEDHLACKCETVAAARPVT
Consider B2, for which, in [12] (10 μg per wound), the “wound healing in the db/db mouse” value is recorded as “did not significantly enhance wound healing”.

B3: VEGF-A165: vascular endothelial growth factor-A165, recombinant (PeproTech) (protein)
chain: APMAEGGGQNHHEVVKFMDVYQRSYCHPIETLVDIFQEYPDEIEYIFKPSCVPLMRCGGCCNDEGLECVPTEESNITMQIMRIKPHQGQHIGEMSFLQHNKCECRPKKDRARQENPCGPCSERRKHLFVQDPQTCKCSCKNTDSRCKARQLELNERTCRCDKPRR
As for B3, the “degree of migration of HUVEC cells” value in test [9] is given as “increases the degree of migration”. Besides, the “wound healing in the db/db mouse” value in test [12] (20 μg per wound applied topically for five consecutive days) is reported as “promote wound healing”.
